One assay concerns the target human SMG1 enzyme (Homo sapiens, UniProt Q96Q15). The assay is described as follows: Measurement of SMG1 kinase activity (ADP-Glo Kinase Assay). Conditions: purified human SMG1 enzyme 5 nM, Upf1 peptide substrate, ATP 4 μM; qAC50 synonymous with IC50; read-out: Test Example 1 ADP-Glo IC50. In kind it is biochemical. An excerpt: The SMG1 kinase inhibitory activity of a compound of the present invention or a pharmaceutically acceptable salt thereof can be measured, for example, by the method described below. Using purified human SMG1 protein and a substrate peptide as materials, the kinase activity can be measured by the ADP-Glo Kinase Assay; the SMG1 kinase inhibitory activity of a test substance can be evaluated by comparing the kinase activity in the presence and absence of the test substance.
The reaction was performed by the ADP-Glo Kinase Assay (Promega, catalog number V9102) using a 384-well plate under the conditions of an assay buffer (100 mM HEPES (pH 7.5), 50 mM NaCl, 10 mM MnCl2, 0.01% BSA, 0.1% Tween 20.5 mM TCEP). After incubating a test substance (DMSO solution; final DMSO concentration: 1%) and purified human SMG1 enzyme (Genes Dev. 2011 Jan. 15; 25(2): 153-164, produced by Daiichi Sankyo RD Novare Co., Ltd.; final concentration: 5 nM) at room temperature for 15 minutes, a substrate, Upf1 peptide (Biotin-(PEG8) QIDVALSQDSTYQG, produced by Eurofins genomics; final concentration: 8 μg/mL), and ATP (Promega: 4 μM) were added, and the mixture was reacted at room temperature for 60 minutes (see Non-Patent Literature R. Melero, et al., Structure Volume 22, Issue 8, 5 Aug. 2014, Pages 1105-1119 for the Upf1 peptide). ADP-Glo Reagent was added, and the mixture was reacted at room temperature for 40 minutes. Kinase Detection Reagent was added, and the mixture was reacted for another 30 minutes. The luminescence intensity was measured using EnVision (PerkinElmer).
The activity value (%) of the test substance-added well was calculated from the following formula, where the average luminescence intensity of the DMSO-added well was 0% and the average luminescence intensity of the SMG1 enzyme-free well was −100%.
The qAC50 (compound concentration showing 50% inhibition, synonymous with IC50) of the test substance was calculated using the activity value (%) at each concentration by Smart fit of Screener (Genedata). Smart fit is a general 4-parameter logistic regression model.
(In ADP-Glo the light output rises with the ADP produced.)

Assay [1] relates to Snhg1 transcript (NMD target gene) in EMT6 murine breast cancer cell line. Kind of assay: Measurement of NMD inhibitory activity in cells (increase in Snhg1 transcript, real-time PCR). Set-up: species or system mouse. Conditions: 6 hours treatment, concentration giving 1/2 of maximum Snhg1 fold change of positive control, read-out: Test Example 2 Cell-based Snhg1 EC50. The protocol: The NMD inhibitory activity of a compound of the present invention or a pharmaceutically acceptable salt thereof in cells can be measured, for example, by the method described below. EMT6 murine breast cancer cell line is treated with a test substance in vitro for 6 hours, and the increase in the transcript of Snhg1, a known NMD target gene, is quantified as an indicator of NMD inhibition. Quantification is performed by real-time PCR.
NMD inhibitory activity was measured by treating EMT6 murine breast cancer cell line (ATCC) with a test substance and quantifying the increase in the transcript of Snhg1, an NMD target gene (see F. Usui, et al., Scientific Reports volume 9, Article number: 1279 (2019) for the NMD target gene). That is, EMT6 cells were suspended in Waymouth's medium (Gibco, 15% FBS) and seeded in a 96-well plate at 2×10^4 cells/well. The cells were cultured for 1 day. The next day, serially diluted test substance (DMSO solution, final DMSO concentration: 2%) was added. After culturing for 6 hours, the supernatant was removed, and RNA was extracted using the RNeasy 96 kit (QIAGEN, 74182). After synthesizing cDNA using the High Capacity cDNA Reverse Transcription kit (Applied Biosystems, 4368813), the cDNA was mixed with PrimeTime Gene Expression Master Mix (Integrated DNA Technologies) and various probes, and gene expression was quantified using QuantStudio 6 Flex (Thermo Fisher Scientific Inc.). For the probe for the Snhg1 gene, which is an NMD target, Mm.PT.58.44039547 (FAM)(Integrated DNA Technologies) was used, and for the probe for the Tbp gene, which is an endogenous control, Mm00446973_m1 Tbp (VIC-PL) (Applied Biosystems) was used. The relative quantification of Snhg1 transcripts was calculated by the ΔΔCT method, using Thp as an endogenous control and setting the expression level of Snhg1 in untreated wells to 1.
A known NMD inhibitory compound (pyrimidine derivative Example 11i, Bioorg Med Chem Lett. 2012, 22(21), 6636-41) was used as a positive control drug for NMD inhibition. The NMD inhibitory activity of the test substance-added well was calculated as follows: the maximum fold change in Sngh1 expression in the positive control drug-added well relative to that in the untreated well was defined as the maximum NMD inhibitory activity, and the EC50 (compound concentration showing 50%/activity) of the test substance showing a ½-fold change was calculated by the GROWTH function of Microsoft Excel.
(In general: Real-time PCR tracks product formation cycle by cycle.)

Structures can show the parent of a compound that is named as a salt. Where two headings read alike, the source gives them in different places.

One may read the IC50 as the concentration needed to halve the response being measured. What is called EC50 is the concentration at which the effect is half-maximal.

Chain of human SMG1 enzyme (Q96Q15 whole entry): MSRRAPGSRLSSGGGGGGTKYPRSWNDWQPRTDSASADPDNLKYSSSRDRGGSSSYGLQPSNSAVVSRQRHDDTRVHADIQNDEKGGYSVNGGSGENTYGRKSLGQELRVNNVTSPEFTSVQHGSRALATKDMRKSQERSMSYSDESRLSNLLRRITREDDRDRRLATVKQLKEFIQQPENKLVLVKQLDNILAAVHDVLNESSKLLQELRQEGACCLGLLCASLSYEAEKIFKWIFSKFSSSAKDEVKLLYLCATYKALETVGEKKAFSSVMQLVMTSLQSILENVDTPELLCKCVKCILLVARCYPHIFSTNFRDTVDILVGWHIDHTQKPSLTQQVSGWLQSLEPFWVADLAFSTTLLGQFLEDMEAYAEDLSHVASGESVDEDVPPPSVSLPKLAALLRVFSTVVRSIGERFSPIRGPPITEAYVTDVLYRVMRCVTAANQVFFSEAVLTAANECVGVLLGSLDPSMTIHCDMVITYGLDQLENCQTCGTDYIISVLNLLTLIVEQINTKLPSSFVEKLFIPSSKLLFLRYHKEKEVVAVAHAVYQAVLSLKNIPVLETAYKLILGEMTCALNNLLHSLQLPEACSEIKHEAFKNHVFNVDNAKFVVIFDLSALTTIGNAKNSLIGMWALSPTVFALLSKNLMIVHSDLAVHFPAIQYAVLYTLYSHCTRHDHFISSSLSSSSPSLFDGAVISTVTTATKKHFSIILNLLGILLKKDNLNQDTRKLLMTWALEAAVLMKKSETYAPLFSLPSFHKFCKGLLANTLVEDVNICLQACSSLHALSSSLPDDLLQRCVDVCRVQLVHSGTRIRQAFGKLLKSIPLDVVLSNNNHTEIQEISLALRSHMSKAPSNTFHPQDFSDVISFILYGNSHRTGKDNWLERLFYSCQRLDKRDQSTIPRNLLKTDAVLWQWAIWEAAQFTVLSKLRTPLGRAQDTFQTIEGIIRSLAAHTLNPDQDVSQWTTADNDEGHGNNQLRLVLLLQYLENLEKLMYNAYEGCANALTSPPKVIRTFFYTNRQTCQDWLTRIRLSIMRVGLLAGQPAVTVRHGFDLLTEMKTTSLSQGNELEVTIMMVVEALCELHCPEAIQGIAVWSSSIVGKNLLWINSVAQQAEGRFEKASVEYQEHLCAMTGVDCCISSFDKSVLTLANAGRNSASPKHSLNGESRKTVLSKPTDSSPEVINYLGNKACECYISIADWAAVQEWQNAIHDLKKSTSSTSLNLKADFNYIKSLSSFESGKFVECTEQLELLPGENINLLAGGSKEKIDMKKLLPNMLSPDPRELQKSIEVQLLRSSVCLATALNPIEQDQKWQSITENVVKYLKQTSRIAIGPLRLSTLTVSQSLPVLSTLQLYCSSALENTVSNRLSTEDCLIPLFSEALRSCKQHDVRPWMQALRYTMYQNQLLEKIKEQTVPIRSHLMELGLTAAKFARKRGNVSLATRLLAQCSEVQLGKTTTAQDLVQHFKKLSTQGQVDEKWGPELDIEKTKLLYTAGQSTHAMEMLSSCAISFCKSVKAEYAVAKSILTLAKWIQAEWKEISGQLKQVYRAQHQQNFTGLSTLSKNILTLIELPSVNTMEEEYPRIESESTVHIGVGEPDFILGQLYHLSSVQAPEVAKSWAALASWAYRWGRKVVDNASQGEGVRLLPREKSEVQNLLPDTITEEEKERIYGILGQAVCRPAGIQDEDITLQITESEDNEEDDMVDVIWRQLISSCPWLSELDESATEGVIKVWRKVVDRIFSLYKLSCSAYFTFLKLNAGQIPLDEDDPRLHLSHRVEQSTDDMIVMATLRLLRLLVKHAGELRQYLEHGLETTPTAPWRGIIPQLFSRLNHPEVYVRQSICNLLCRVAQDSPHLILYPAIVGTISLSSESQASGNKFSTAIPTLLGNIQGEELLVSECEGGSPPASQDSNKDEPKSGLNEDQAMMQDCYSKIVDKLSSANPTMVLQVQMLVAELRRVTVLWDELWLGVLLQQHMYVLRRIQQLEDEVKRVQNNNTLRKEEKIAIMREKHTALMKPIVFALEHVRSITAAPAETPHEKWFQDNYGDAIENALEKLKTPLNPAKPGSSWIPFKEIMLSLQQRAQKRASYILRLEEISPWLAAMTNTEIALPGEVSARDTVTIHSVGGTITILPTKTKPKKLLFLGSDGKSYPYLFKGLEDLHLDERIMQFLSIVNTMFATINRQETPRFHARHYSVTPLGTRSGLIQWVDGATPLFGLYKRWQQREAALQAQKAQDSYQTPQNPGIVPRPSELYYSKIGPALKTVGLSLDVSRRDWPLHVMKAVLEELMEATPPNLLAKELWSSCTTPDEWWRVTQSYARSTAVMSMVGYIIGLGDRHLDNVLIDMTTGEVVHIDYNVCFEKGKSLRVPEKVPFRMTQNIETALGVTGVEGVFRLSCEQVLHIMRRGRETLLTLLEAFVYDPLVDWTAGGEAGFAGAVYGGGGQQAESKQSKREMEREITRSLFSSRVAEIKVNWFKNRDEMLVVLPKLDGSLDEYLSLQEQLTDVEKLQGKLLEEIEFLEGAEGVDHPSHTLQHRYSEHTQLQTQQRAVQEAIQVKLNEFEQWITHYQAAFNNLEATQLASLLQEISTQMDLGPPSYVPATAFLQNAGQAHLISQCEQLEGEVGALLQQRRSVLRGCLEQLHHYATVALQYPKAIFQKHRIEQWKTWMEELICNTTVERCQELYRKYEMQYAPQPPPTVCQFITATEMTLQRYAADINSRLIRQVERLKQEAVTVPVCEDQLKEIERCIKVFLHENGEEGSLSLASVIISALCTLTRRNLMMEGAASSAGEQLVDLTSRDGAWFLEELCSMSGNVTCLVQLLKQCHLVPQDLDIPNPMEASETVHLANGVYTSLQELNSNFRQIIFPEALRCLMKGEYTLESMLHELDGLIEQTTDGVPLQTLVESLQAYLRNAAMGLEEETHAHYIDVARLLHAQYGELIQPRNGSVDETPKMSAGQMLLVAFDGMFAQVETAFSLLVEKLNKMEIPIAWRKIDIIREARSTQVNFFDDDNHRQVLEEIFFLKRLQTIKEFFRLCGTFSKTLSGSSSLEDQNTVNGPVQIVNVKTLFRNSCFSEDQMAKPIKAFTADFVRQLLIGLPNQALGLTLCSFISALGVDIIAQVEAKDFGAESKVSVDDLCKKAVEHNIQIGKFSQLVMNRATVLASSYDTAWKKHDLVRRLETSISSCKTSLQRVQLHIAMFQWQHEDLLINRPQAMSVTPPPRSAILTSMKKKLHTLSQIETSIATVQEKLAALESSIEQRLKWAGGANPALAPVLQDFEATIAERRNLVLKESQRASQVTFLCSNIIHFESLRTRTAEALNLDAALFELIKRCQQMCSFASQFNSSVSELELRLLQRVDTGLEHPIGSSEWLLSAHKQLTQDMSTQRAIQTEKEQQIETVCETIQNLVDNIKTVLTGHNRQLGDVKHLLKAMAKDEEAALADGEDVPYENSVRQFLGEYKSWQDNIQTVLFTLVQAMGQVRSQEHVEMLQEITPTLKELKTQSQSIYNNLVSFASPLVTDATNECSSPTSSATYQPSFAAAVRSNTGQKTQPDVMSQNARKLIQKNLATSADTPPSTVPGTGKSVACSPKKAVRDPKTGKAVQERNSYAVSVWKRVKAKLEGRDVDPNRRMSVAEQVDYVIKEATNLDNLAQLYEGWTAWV

In the case of “5-(2-chloro-6-fluorophenyl)-3-(6-chloro-1H-imidazo[4,5-c]pyridin-2-y1)-1,6-naphthyridin-2(1H)-one [Example 30]”, the IC50 on human SMG1 enzyme stood at 1.9 nM. Moreover, the EC50 in assay [1] amounted to 40 nM.

In the case of `C[C@@H]1COCCN1c1nc(Cl)cc2[nH]c(-c3cc4c(C5(C)CC5)nccc4[nH]c3=O)nc12` [Example 2, 3-{6-chloro-4-[(3R)-3-methylmorpholin-4-yl]-1H-imidazo[4,5-c]pyridin-2-yl}-5-(1-methylcyclopropyl)-1,6-naphthyridin-2(1H)-one], at human SMG1 enzyme, the IC50 stood at 4.9 nM. In addition, the concentration for a half-maximal effect (EC50) in assay [1] (Mus musculus) was 94 nM.

For `C[C@@H]1COCCN1c1nc(Cl)cc2[nH]c(-c3cc4cnc(C5=CCCN(C)C5)cc4[nH]c3=O)nc12` [Example 3, 3-{6-chloro-4-[(3R)-3-methylmorpholin-4-yl]-1H-imidazo[4,5-c]pyridin-2-yl}-7-(1-methyl-1,2,5,6-tetrahydropyridin-3-yl)-1,6-naphthyridin-2(1H)-one], on human SMG1 enzyme, the half-maximal inhibitory concentration (IC50) was determined as 4.6 nM. Further, the half-maximal effective concentration (EC50) in assay [1] (Mus musculus) came out at 161 nM.

Take `O=c1[nH]c2ccncc2cc1-c1nc2c(N3CCOC[C@H]3C(F)F)nc(Cl)cc2[nH]1` [Example 4, 3-{6-chloro-4-[(3S)-3-(difluoromethyl)morpholin-4-yl]-1H-imidazo[4,5-c]pyridin-2-yl}-1,6-naphthyridin-2(1H)-one]: the half-inhibitory concentration (IC50) on human SMG1 enzyme is 2.4 nM. Besides, the EC50 in assay [1] (Mus musculus) is 41 nM.

Consider `CN(c1nc(Cl)cc2[nH]c(-c3cc4cnccc4[nH]c3=O)nc12)[C@H]1CC[C@H](O)CC1` [Example 5, 3-{6-chloro-4-[(trans-4-hydroxycyclohexyl)(methyl)amino]-1H-imidazo[4,5-c]pyridin-2-yl}-1,6-naphthyridin-2(1H)-one], for which, at human SMG1 enzyme, the IC50 was found to be 1.4 nM. Also, in assay [1] (Mus musculus), the concentration for a half-maximal effect (EC50) stood at 30 nM.

As to `CC(C1CCOCC1)N(C)c1nc(Cl)cc2[nH]c(-c3cc4cnccc4[nH]c3=O)nc12` (stereo not drawn) [Example 6, 3-(6-chloro-4-{methyl[1-(tetrahydro-2H-pyran-4-yl)ethyl]amino}-1H-imidazo[4,5-c]pyridin-2-yl)-1,6-naphthyridin-2(1H)-one], at human SMG1 enzyme, the IC50 came to 1.4 nM. Further, the 50% effective concentration (EC50) in assay [1] (Mus musculus) came out at 8.6 nM.

With `C[C@@H](Nc1nc(Cl)cc2[nH]c(-c3cc4c(N5CCN(C)CC5)nccc4[nH]c3=O)nc12)C(F)(F)F` [Example 7, 3-(6-chloro-4-{[(2R)-1,1,1-trifluoropropan-2-yl]amino}-1H-imidazo[4,5-c]pyridin-2-yl)-5-(4-methylpiperazin-1-yl)-1,6-naphthyridin-2(1H)-one], the IC50 on human SMG1 enzyme was determined as 6 nM. For the same molecule, the EC50 in assay [1] (Mus musculus) came to 95 nM.

Take `NC1CN(c2nc(Cl)cc3[nH]c(-c4cc5cnccc5[nH]c4=O)nc23)CC(F)(F)C1` (stereo not drawn) [Example 9, 3-[4-(5-amino-3,3-difluoropiperidin-1-yl)-6-chloro-1H-imidazo[4,5-c]pyridin-2-yl]-1,6-naphthyridin-2(1H)-one trifluoroacetate]: the IC50 on human SMG1 enzyme came out at 4 nM. For the same molecule, in assay [1] (Mus musculus), the EC50 came out at 122 nM.

In the case of `Cc1cc2[nH]c(=O)c(-c3nc4c(C5CCOCC5)nc(Cl)cc4[nH]3)cc2c(C)n1` [Example 18, 3-[6-chloro-4-(tetrahydro-2H-pyran-4-yl)-1H-imidazo[4,5-c]pyridin-2-yl]-5,7-dimethyl-1,6-naphthyridin-2(1H)-one], at human SMG1 enzyme, the 50% inhibitory concentration (IC50) turned out to be 0.57 nM. In addition, the 50% effective concentration (EC50) in assay [1] (Mus musculus) came out at 43 nM.

Turning to `CCCc1nc(Cl)cc2[nH]c(-c3cc4c(C)nccc4[nH]c3=O)nc12` [Example 20, 3-(6-chloro-4-propyl-1H-imidazo[4,5-c]pyridin-2-yl)-5-methyl-1,6-naphthyridin-2(1H)-one], the IC50 on human SMG1 enzyme came out at 2 nM. Besides, the EC50 in assay [1] (Mus musculus) is 13 nM.

With `Nc1cccc(-c2nc(Cl)cc3[nH]c(-c4cc5cnccc5[nH]c4=O)nc23)c1` [Example 24, 3-[4-(3-aminophenyl)-6-chloro-1H-imidazo[4,5-c]pyridin-2-yl]-1H-1,6-naphthyridin-2-one trifluoroacetate], the IC50 on human SMG1 enzyme is 2.2 nM. The EC50 in assay [1] (Mus musculus) was 76 nM.

For the molecule `O=c1[nH]c2ccncc2cc1-c1nc2c(-c3ccccc3F)nc(Cl)cc2[nH]1` [Example 25, 3-[6-chloro-4-(2-fluorophenyl)-1H-imidazo[4,5-c]pyridin-2-yl]-1,6-naphthyridin-2(1H)-one], the half-maximal inhibitory concentration (IC50) at human SMG1 enzyme was determined as 1.8 nM. The concentration for a half-maximal effect (EC50) in assay [1] (Mus musculus) was determined as 39 nM.

As to `CCc1nc(Cl)cc2[nH]c(-c3cc4c(-c5ccccc5F)nccc4[nH]c3=O)nc12` [Example 27, 3-(6-chloro-4-ethy1-1H-imidazo[4,5-c]pyridin-2-y1)-5-(2-fluorophenyl)-1,6-naphthyridin-2(1H)-one], on human SMG1 enzyme, the IC50 came out at 1 nM. In addition, in assay [1] (Mus musculus), the EC50 worked out at 2.8 nM.

With `Cc1c(OC(F)F)cccc1-c1nccc2[nH]c(=O)c(-c3nc4cnc(Cl)cc4[nH]3)cc12` [Example 33, 3-(6-chloro-1H-imidazo[4,5-c]pyridin-2-y1)-5-[3-(difluoromethoxy)-2-methylpheny1]-1,6-naphthyridin-2(1H)-one], on human SMG1 enzyme, the IC50 came to 3 nM. Further, the EC50 in assay [1] (Mus musculus) turned out to be 48 nM.

As for `[2H]C([2H])([2H])Oc1ccccc1-c1nccc2[nH]c(=O)c(-c3nc4c(C5CC5)nc(Cl)cc4[nH]3)cc12` [Example 39, 3-(6-chloro-4-cyclopropyl-1H-imidazo[4,5-c]pyridin-2-yl)-5-{2-[(^2H3)methyloxy]phenyl}-1,6-naphthyridin-2(1H)-one], the IC50 at human SMG1 enzyme amounted to 1.9 nM. Besides, the concentration for a half-maximal effect (EC50) in assay [1] (Mus musculus) came to 19 nM.

Take `[2H]C([2H])([2H])Oc1ccccc1-c1nccc2[nH]c(=O)c(-c3nc4c(C(C)O)nc(Cl)cc4[nH]3)cc12` (stereo not drawn) [Example 40, 3-[6-chloro-4-(1-hydroxyethyl)-1H-imidazo[4,5-c]pyridin-2-yl]-5-{2-[(^2H3)methyloxy]phenyl}-1,6-naphthyridin-2(1H)-one]: the 50% inhibitory concentration (IC50) at human SMG1 enzyme was 0.53 nM. Moreover, in assay [1] (Mus musculus), the concentration for a half-maximal effect (EC50) came to 11 nM.

For `[2H]C([2H])([2H])Oc1ccccc1-c1nccc2[nH]c(=O)c(-c3nc4c(C(C)F)nc(Cl)cc4[nH]3)cc12` (stereo not drawn) [Example 41, 3-[6-chloro-4-(1-fluoroethyl)-1H-imidazo[4,5-c]pyridin-2-yl]-5-{2-[(^2H3)methyloxy]phenyl}-1,6-naphthyridin-2(1H)-one], at human SMG1 enzyme, the IC50 is 1.1 nM. Moreover, in assay [1] (Mus musculus), the concentration giving a half-maximal response (EC50) amounted to 4.8 nM.

On to `[2H]C([2H])([2H])Oc1ccccc1-c1nccc2[nH]c(=O)c(-c3nc4c(CC(=O)NC(C)(C)C)nc(Cl)cc4[nH]3)cc12` [Example 42, N-tert-butyl-2-[6-chloro-2-(5-{2-[(^2H3)methyloxy]phenyl}-2-oxo-1,2-dihydro-1,6-naphthyridin-3-yl)-1H-imidazo[4,5-c]pyridin-4-yl]acetamide], for which the IC50 on human SMG1 enzyme was 2.6 nM. In addition, in assay [1] (Mus musculus), the 50% effective concentration (EC50) worked out at 124 nM.

These data come from US20260109715A1, “IMIDAZOPYRIDINE DERIVATIVES WITH BICYCLIC STRUCTURE” (PUBLIC UNIVERSITY CORPORATION YOKOHAMA CITY UNIVERSITY, priority 2022, published 2026).
